Read-outs that look alike come from different tables or passages of the source.
Legend:
[1] = system: Ty-82 BRD4-NUT; assay: Cell proliferation assay (Alamar readout), Ty-82; type: cell-based, human; details: Homo sapiens, TY82, 96h, read-out: geomean GI50
Procedure: The NUT Carcinoma cell line Ty-82 was purchased from JCRB Japan No. 1330 and cultivated in RPMI 1640 supplemented with 10% fetal calf serum (FCS). The NC cell lines 10–15, 14169 and 10326 were in-licensed from Christopher French, Brigham & Womens Hospital, Boston, and were cultivated in DMEM supplemented with glutamax and 10% FCS.
Viability assays were performed on 96-well flat-bottom microtiter plates and incubated with Alamar Blue solution (Invitrogen, Carlsbad, US-CA). The effects of drug combinations were analysed using the Bliss Independence Model.
Dose response curves (96h cell proliferation assay - Alamar readout) on four NC cell lines with BET inhibitor BI 894999. Yellow bar: readout t zero (before adding of compound). Green bar: DMSO control (max proliferation).
Dose response curves (96h cell proliferation assay - Alamar readout) on four NC cell lines with multiple BET inhibitors.

[2] = Plasma pharmacokinetics in patients (NCT02516553); type: in vivo
Procedure: Schedule B (NCT02516553): daily oral treatment from Day 1 to Day 14 at 2.5 mg/day followed by a week-off in 3-week cycles. Schedule C (NCT02516553): one week-on, one week-off treatment, repeated every two weeks in 4-week cycles with, at each treatment week, a loading dose (6 mg) on Day 1 followed by a maintenance dose (3 mg per day) on the following 6 days.

[3] = system: 10–15 xenograft (BRD4-NUT); assay: 10–15 NC xenograft model; type: in vivo, mice; details: 2 mg/kg BI 894999
Source text: Mice were group-housed (8–10 mice per cage) under pathogen-free and controlled environmental conditions (21 ± 1.5 C temperature, 55 ± 10% humidity) in an AAALAC accredited facility and handled according to the institutional, governmental and European Union guidelines (Austrian Animal Protection Laws, GV-SOLAS and FELASA guidelines). Animal studies were approved by the internal ethics committee and the local government committee. Mice were 6- to 8-week-old female CIEA NOG purchased from Taconic, Denmark (NOD.Cg-Prkdc^scid Il2rg^tm1Sug/JicTac). 5 × 10^6 NC tumour cells were injected subcutaneously into the right flank of the mice (1 site per mouse). Mice were randomly distributed between the treatment and the vehicle control when tumours were well established and had reached volumes of 100–150 mm^3. Compounds were suspended in 0.5% Natrosol and administered once daily intra-gastral by gavage needle. Tumour diameters were measured three times a week with a calliper. […] Within each subtopic the p-values of the efficacy parameters were adjusted for multiple comparisons according to Bonferroni–Holm. The p-values of the tolerability parameter remained unadjusted in order not to overlook a possible adverse effect. The level of significance was fixed at α = 5%. An adjusted p-value of less than 0.05 was considered to show a statistically significant difference between the groups. The statistical evaluation was prepared using the software Graph Pad Prism.

CNc1nc(-c2nc3ccc(N4CCN(C)CC4)cc3n2Cc2ccccc2)cn2c(C)nnc12 [BI 894999]
GI50 [1]: 2.6 nM
Cmax ([2]; Schedule C, 6 mg loading/3 mg maintenance, Day 1, 19 patients, read-out: maximal plasma concentration (mean Cmax)): ~20 nM
Cmax ([2]; human, plasma, oral, 2.5 mg, Schedule B, 2.5 mg daily, Day 1, 55 patients, read-out: maximum plasma concentration (mean Cmax)): 5 nM
Cmax ([2]; human, plasma, oral, 6 mg, Schedule C, 6 mg loading/3 mg maintenance, Day 1, 19 patients, read-out: maximal plasma concentration (mean Cmax)): 19 nM
TGI [3]: 40%
